ChEMBL document CHEMBL5291721, “A preclinical secondary pharmacology resource illuminates target-adverse drug reaction associations of marketed drugs” (Nat Commun, 2023)

Legend:
[1] = target: 3',5'-cyclic-AMP phosphodiesterase 4D (Homo sapiens, UniProt Q08499); assay type: functional
Melanocortin receptor 3 = Melanocortin receptor 3 (Homo sapiens, UniProt P41968)
[2] = target: T1, Muscarinic acetylcholine receptor M2 (Homo sapiens, UniProt P08172); assay type: functional, cell-based
T1 sequence (P08172 whole entry): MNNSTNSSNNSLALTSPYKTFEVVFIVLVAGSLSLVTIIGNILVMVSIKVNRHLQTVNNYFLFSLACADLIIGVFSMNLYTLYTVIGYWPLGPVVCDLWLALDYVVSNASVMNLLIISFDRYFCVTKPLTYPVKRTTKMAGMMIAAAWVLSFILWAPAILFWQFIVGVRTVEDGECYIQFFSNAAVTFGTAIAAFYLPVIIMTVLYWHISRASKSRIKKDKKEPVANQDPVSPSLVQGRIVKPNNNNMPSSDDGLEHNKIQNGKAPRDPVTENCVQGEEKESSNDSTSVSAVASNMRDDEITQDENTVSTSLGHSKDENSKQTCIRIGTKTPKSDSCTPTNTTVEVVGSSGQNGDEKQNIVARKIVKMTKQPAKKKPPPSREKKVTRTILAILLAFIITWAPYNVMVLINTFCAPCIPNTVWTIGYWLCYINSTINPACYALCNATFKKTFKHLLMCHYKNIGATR

[3] = target: T2, 5-hydroxytryptamine receptor 2C (Homo sapiens, UniProt P28335)
T2 sequence (P28335 whole entry): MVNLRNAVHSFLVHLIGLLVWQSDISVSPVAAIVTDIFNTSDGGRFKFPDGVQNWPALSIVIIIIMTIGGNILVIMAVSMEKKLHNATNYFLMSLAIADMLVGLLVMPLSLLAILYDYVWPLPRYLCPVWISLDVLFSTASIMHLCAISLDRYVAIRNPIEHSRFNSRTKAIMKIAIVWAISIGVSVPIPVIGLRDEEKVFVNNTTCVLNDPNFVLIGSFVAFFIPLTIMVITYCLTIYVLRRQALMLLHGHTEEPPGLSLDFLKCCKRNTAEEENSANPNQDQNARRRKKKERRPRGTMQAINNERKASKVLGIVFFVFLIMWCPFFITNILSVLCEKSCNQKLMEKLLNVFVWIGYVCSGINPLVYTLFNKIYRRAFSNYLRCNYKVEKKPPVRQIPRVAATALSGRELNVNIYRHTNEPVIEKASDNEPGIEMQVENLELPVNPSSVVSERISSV

[4] = target: cGMP-inhibited 3',5'-cyclic phosphodiesterase 3A (Homo sapiens, UniProt Q14432); assay type: functional
Sequence of cGMP-inhibited 3',5'-cyclic phosphodiesterase 3A (Q14432 whole entry): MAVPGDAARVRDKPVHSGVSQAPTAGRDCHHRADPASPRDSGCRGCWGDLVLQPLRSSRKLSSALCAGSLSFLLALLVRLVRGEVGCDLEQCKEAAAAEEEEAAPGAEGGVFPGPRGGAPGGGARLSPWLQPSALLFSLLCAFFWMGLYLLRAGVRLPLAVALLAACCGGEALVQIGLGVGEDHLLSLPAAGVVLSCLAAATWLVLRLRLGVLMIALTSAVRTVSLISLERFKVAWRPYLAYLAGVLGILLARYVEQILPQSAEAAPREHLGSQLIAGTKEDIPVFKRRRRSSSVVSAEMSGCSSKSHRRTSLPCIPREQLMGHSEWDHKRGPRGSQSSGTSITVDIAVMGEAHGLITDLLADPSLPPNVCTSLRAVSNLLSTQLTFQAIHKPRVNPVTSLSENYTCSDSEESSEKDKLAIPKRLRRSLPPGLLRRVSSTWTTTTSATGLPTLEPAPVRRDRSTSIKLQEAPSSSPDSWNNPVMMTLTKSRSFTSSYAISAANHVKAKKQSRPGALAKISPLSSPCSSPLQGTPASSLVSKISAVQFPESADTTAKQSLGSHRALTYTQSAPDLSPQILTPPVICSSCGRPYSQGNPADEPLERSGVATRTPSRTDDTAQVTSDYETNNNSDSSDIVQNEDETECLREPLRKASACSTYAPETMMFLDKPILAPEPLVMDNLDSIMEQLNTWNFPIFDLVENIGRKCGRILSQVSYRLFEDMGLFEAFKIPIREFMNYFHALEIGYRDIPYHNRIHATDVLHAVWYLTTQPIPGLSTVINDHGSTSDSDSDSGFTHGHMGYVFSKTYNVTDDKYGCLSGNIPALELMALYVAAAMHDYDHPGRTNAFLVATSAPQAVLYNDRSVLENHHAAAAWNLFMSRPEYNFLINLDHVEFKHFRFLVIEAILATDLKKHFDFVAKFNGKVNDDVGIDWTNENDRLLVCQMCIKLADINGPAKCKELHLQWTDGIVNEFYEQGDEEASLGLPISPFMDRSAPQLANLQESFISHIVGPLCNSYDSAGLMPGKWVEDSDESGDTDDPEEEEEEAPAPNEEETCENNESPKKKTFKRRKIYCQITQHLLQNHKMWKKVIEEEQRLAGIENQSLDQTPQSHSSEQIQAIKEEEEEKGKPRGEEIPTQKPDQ

Progesterone receptor = target: T3, Progesterone receptor (Homo sapiens, UniProt P06401); assay type: functional
T3 sequence (P06401 whole entry): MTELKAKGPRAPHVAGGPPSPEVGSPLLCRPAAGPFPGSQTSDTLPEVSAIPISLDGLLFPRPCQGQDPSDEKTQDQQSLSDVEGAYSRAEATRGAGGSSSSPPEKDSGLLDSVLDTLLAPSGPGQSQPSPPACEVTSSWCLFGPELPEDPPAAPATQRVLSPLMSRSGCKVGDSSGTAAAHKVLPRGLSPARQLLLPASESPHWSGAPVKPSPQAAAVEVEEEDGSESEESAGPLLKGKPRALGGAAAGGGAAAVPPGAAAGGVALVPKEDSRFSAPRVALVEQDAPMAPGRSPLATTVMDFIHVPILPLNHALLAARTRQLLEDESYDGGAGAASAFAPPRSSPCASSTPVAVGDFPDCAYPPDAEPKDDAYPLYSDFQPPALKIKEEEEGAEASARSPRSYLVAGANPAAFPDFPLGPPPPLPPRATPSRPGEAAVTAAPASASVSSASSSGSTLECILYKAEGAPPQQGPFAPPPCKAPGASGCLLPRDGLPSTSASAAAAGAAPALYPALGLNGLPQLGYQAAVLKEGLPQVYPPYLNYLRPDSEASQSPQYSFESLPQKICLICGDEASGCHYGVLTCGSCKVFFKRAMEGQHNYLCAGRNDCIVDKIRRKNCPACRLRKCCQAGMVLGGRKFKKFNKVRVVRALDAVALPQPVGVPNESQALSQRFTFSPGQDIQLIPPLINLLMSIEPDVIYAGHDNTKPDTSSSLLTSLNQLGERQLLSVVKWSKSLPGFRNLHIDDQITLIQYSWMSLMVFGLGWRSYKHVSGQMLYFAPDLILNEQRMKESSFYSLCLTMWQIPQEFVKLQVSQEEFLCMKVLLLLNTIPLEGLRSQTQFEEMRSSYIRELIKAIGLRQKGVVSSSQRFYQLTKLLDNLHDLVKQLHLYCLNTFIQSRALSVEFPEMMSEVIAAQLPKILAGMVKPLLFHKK

[5] = target: T4, Alpha-2C adrenergic receptor (Homo sapiens, UniProt P18825); assay type: functional
T4 sequence (P18825 whole entry): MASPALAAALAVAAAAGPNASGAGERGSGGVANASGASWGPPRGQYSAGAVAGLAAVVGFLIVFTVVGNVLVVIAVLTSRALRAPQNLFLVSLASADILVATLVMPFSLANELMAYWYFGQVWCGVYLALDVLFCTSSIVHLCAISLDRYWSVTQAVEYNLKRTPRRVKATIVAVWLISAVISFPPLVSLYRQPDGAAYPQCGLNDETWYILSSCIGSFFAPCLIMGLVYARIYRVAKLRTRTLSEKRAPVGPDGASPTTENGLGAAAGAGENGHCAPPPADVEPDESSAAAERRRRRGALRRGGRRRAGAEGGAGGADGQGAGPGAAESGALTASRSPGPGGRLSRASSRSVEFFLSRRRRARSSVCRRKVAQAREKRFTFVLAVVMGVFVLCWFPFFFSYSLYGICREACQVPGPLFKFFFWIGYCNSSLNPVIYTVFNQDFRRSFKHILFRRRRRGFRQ

[6] = target: Gamma-aminobutyric acid receptor subunit alpha-1 (Rattus norvegicus, UniProt P62813); assay type: functional
Sequence of Gamma-aminobutyric acid receptor subunit alpha-1 (P62813 whole entry): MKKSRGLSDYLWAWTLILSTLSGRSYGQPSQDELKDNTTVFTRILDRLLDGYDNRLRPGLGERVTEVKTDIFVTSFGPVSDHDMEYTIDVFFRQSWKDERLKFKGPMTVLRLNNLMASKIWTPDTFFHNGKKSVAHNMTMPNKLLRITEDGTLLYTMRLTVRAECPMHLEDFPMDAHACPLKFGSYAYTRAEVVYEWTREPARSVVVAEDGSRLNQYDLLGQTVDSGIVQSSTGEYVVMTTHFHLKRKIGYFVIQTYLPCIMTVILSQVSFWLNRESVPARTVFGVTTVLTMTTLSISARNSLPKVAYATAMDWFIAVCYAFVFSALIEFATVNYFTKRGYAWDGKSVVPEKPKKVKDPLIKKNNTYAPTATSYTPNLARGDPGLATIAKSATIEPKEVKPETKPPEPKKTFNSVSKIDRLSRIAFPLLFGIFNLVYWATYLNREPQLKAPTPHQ
Further: assay procedure not described here.

Sequence of Melanocortin receptor 3 (P41968 whole entry): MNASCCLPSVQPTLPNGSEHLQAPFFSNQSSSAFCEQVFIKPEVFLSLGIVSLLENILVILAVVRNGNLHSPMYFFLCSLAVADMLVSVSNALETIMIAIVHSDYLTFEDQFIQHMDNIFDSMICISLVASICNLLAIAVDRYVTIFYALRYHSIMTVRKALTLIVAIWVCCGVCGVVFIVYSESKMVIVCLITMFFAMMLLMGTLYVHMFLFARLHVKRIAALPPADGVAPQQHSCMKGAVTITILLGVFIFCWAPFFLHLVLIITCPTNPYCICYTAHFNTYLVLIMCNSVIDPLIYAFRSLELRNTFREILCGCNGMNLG
Sequence of 3',5'-cyclic-AMP phosphodiesterase 4D (Q08499 whole entry): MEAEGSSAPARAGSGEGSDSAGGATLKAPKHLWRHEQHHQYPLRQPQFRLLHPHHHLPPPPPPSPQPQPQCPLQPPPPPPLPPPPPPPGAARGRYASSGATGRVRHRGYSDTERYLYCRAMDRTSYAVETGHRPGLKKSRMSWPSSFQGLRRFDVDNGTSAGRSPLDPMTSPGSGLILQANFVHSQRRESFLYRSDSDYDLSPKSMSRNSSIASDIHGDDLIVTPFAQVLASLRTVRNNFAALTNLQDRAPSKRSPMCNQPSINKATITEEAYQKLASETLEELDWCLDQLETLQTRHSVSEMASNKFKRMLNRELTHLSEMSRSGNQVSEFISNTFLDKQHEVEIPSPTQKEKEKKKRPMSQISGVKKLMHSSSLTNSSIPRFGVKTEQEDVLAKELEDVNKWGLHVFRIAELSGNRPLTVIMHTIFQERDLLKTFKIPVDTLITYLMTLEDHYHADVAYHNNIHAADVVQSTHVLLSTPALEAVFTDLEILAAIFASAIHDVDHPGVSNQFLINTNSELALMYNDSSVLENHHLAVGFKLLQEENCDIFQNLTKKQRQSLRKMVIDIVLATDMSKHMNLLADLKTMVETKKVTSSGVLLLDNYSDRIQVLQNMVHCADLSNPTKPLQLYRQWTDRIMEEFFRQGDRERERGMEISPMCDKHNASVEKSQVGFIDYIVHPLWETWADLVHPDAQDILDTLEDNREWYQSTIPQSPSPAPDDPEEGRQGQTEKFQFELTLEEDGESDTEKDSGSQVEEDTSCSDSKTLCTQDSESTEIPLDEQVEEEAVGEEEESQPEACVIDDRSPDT

Row | SMILES | AC50 [1] [µM] | AC50 (Melanocortin receptor 3) [µM] | AC50 [2] [µM] | AC50 [3] [µM] | AC50 [4] [µM] | AC50 (Progesterone receptor) [µM] | AC50 [5] [µM] | AC50 [6] [µM]
1 | Clc1ccc(CCC(Cn2ccnc2)Sc2c(Cl)cccc2Cl)cc1 (centres undefined) [BUTOCONAZOLE] | 11 | > 30 | > 30 | > 30 | > 30 | 9.1 | > 30 | > 30
2 | CO/N=C(\C(=O)N[C@@H]1C(=O)N2C(C(=O)O)=CCS[C@H]12)c1csc(N)n1 [CEFTIZOXIME] | > 30 | > 30 | > 30 | – | > 30 | 26 | > 30 | –
3 | Fc1ccc([C@@H]2CCNC[C@H]2COc2ccc3c(c2)OCO3)cc1 [PAROXETINE] | > 30 | > 30 | – | > 30 | > 30 | – | 7.8 | > 10
4 | CO[C@H]1C[C@H](O[C@H]2CC[C@@]3(C)[C@H](CC[C@@H]4[C@@H]3CC[C@]3(C)[C@@H](C5=CC(=O)OC5)[C@@H](OC(C)=O)C[C@]43O)C2)O[C@@H](C)[C@@H]1O [OLEANDRIN] | > 30 | – | > 30 | > 30 | > 30 | – | > 30 | > 30
5 | O=c1c(O)c(-c2ccc(O)c(O)c2)oc2cc(O)cc(O)c12 [QUERCETIN] | > 10 | > 30 | > 10 | > 30 | > 30 | – | > 10 | –
6 | CCC(=O)O[C@](Cc1ccccc1)(c1ccccc1)[C@H](C)CN(C)C [PROPOXYPHENE] | > 30 | > 30 | > 10 | > 30 | > 30 | – | > 10 | > 10
7 | Cc1ccnc2c1NC(=O)c1cccnc1N2C1CC1 [NEVIRAPINE] | > 10 | > 30 | > 10 | > 10 | 4.5 | – | > 10 | > 10
8 | CCOC(=O)c1ncn2c1CN(C)C(=O)c1cc(F)ccc1-2 [FLUMAZENIL] | > 30 | > 30 | > 30 | > 30 | > 30 | > 30 | > 30 | –
9 | Cc1cc(=O)n(-c2ccccc2)n1C [ANTIPYRINE] | > 30 | > 30 | > 10 | > 30 | > 30 | – | > 10 | > 10
10 | CCOC(=O)c1ccc(C#Cc2ccc3c(c2)C(C)(C)CCS3)nc1 [TAZAROTENE] | > 30 | > 30 | > 10 | > 30 | > 30 | – | > 10 | > 10
11 | Oc1cc(O)c(Cl)cn1 | > 30 | > 30 | > 30 | > 30 | > 30 | – | > 30 | > 30
12 | CC(C)NC[C@H](O)COc1ccc(CC(N)=O)cc1 [ESATENOLOL] | > 10 | > 30 | – | > 10 | > 10 | – | > 10 | –
13 | C[C@]12C/C(=C/O)C(=O)C[C@@H]1CC[C@@H]1[C@@H]2CC[C@@]2(C)[C@H]1CC[C@]2(C)O [OXYMETHOLONE] | > 30 | > 30 | > 30 | > 30 | > 30 | – | > 30 | > 30
14 | CCCCOc1ccc(C(=O)CCN2CCCCC2)cc1 [DYCLONINE] | 11 | > 30 | > 10 | > 10 | > 10 | – | 8.4 | > 10
15 | CCCCCCCC(=O)CC[C@@H]1[C@@H](C/C=C\CCCC(=O)OC(C)C)[C@@H](O)C[C@H]1O [UNOPROSTONE ISOPROPYL] | 9.6 | 27 | – | – | > 30 | 21 | 13 | –
16 | CN1CCN=C(c2ccccc2)c2cc(Cl)ccc21 [MEDAZEPAM] | 5.2 | > 30 | > 30 | 25 | > 30 | – | > 30 | 2.1
17 | COc1cc(C(=O)OCc2cccc(COC(=O)c3cc(OC)c(OC)c(OC)c3)n2)cc(OC)c1OC [PIROZADIL] | > 30 | > 30 | > 30 | – | > 30 | > 30 | > 30 | > 30
18 | CCOC(=O)C(C)(C)Oc1ccc(Cl)cc1 [CLOFIBRATE] | > 30 | > 30 | > 10 | > 30 | > 30 | – | > 10 | > 10
19 | COc1cc(N)c(Cl)cc1C(=O)NC1CCN(CCCOc2ccc(F)cc2)CC1OC (centres undefined) [CISAPRIDE] | > 30 | > 30 | > 10 | – | > 30 | – | – | > 10
20 | C[C@@H]1C[C@H]2[C@@H]3CCC4=CC(=O)C=C[C@]4(C)[C@@]3(F)[C@@H](O)C[C@]2(C)[C@@]1(O)C(=O)CO [DEXAMETHASONE] | > 30 | > 30 | > 10 | > 30 | > 30 | – | > 30 | > 10
21 | O=C(CCCN1CCC(O)(c2ccc(Br)cc2)CC1)c1ccc(F)cc1 [BROMPERIDOL] | > 30 | > 30 | > 30 | > 30 | > 30 | > 30 | – | > 30
22 | c1ccc(C2(N3CCCCC3)CCCCC2)cc1 [PHENCYCLIDINE] | > 30 | > 30 | > 30 | – | > 30 | > 30 | > 30 | > 30
23 | CC(=O)[C@H]1CC[C@H]2[C@@H]3C[C@H](C)C4=CC(=O)CC[C@]4(C)[C@H]3[C@@H](O)C[C@]12C [MEDRYSONE] | > 30 | > 10 | > 10 | > 30 | > 30 | – | > 10 | > 10
24 | O=C1Nc2ccc(Cl)cc2C(c2ccccc2Cl)=NC1O (centres undefined) [LORAZEPAM] | > 30 | > 30 | > 10 | > 30 | > 30 | – | > 10 | 0.0074
